Patent US10307424B2, “Drug with hepatoprotective activity” (priority 2015, dated 2019)

Columns and labels:
[1] = tested on: Acute toxic hepatitis in rats induced by carbon tetrachloride (CCl4); assay: Hepatoprotective activity in rats with acute toxic hepatitis induced by CCl4; type: in vivo, Wistar rats; conditions: 25 mg/kg; for Survivability of the animals by day 28: Wistar rats; for Body weight of the animals by the 20th day: surviving animals
Procedure: The animals were in standard housing conditions under natural light conditions, with free access to water and food. Acute toxic hepatitis in rats was induced by means of intragastric administration of 50% solution of carbon tetrachloride (CCl 4) in olive oil at a dose of 1 ml/kg for 6 days. […]
The tested preparations were administered orally in the form of a suspension in olive oil once a day after the formation of the model pathology or intravenously at a dose of 25 mg/kg. The weight dynamics of the rats were determined on Sartorius scale.

[2] = tested on: patients with toxic liver damage, alcoholic hepatitis, alcoholic liver disease (fatty hepatosis), alcoholic liver cirrhosis; assay: Efficacy of derivatives No. 1 and No. 2 in patients with liver disease (decrease in ALT, ASAT, GGTP); type: in vivo, patients (men and women); conditions: of 30 patients
Text: The study of the efficacy of derivatives No. 1 and No. 2 was additionally carried out with the participation of patients (men and women aged 25 to 60 years) with the following diagnoses: toxic liver damage, alcoholic hepatitis, alcoholic liver disease (fatty hepatosis), alcoholic liver cirrhosis.
Inclusion criteria: increased levels of alanine aminotransferase (ALT), aspartate aminotransferase (ASAT), gamma glutaminetransferase (GGTP) at least 2 times the upper limit of the normal value.
Patients of the experimental group (30 persons) adhibited derivative No. 1 in the form of capsules containing 250 mg of the drug in a total dose of 1000 mg/day.
Patients of the control group (9 persons) adhibited placebo (capsules filled with chalk).
Patients of the experimental group (30 persons) adhibited derivative No. 2 in the form of lyophilisate for IV injection containing 50 mg of the drug in a total dose of 300 mg/day.
Patients of the control group (10 persons), were administered a 0.9% solution of NaCl as a placebo.

[3] = tested on: toxic hepatitis modelled by combined administration of dichloroethane and acetaminophen; assay: Combined effect of subject compounds and known hepatic drugs, toxic hepatitis by dichloroethane and acetaminophen (500 and 500 mg/kg); type: in vivo; conditions: untreated control 10
Procedure: Also, the combined effect of the subject compounds and known drugs for the treatment of hepatic diseases was examined.
(§1) For the modeling of toxic hepatitis, the combined administration of dichloroethane and acetaminophen in doses of 500 and 500 mg/kg, respectively, was used. After 10 days all experimental animals confirmed the presence of toxic hepatitis according to the morphological pattern of the liver.

[4] = tested on: toxic hepatitis modelled by combined administration of dichloroethane and acetaminophen; assay: Toxic hepatitis caused by dichloroethane and acetaminophen (300 and 250 mg/kg), treatment with derivative No. 4; type: in vivo, laboratory rats; conditions: for Cytochrome B5 / Cytochrome P450 / Glycogen / Reduced glutathione: liver
Procedure: The efficacy of derivative No. 4 on additional parameters was studied in laboratory rats.
as §1, with “of 300” for “of 500”, “and 250” for “and 500”, “liver. In the untreated control group, by the 10th day of the study, 4 animals out of 10 died.” for “liver.”
From that time, for 10 days, the experimental animals were administered, once a day, derivative No. 4 (50 mg/kg, intragastrically in starch mucus) or derivative No. 4 (10 mg/kg, IV, into the tail vein).

[5] = capsules 250 mg, total dose 1000 mg/day, control 1 of 9
[6] = lyophilisate for IV injection, total dose 300 mg/day, control 1 of 10
[7] = Enteral administration, 50 mg/kg intragastrically once a day, day 10
[8] = Parenteral administration, 10 mg/kg IV once a day, day 10
[9] = Intraventricular administration, once a day

Compound: O=C1NC(O)(O)C(=NO)C(=O)N1c1ccc(Br)cc1 [Derivative 1, 3-(4-bromophenyl)-6,6-dihydroxy-5-hydroxyiminohexahydro-2,4-pyrimidinedione]
- Survivability of the animals by day 28 ([1]; Intravenous administration): 57%
- Body weight of the animals by the 20th day ([1]; Intravenous administration): 171 ± 5%
- Survivability of the animals by day 28 ([1]; once a day): 59%
- The number of patients in the group with a decrease in ALT by 30% or more [2, 5]: 23
- The number of patients in the group with a decrease in ASAT by 30% or more [2, 5]: 23
- The number of patients in the group with a decrease in GGTP by 30% or more ([2]; capsules 250 mg, total dose 1000 mg/day, control 2 of 9): 25
- Survivability by the 10th day [3]: 40%

Compound: O=C1NC(O)(O)C(=N[O-])C(=O)N1c1ccc(Br)cc1.[Na+] [Derivative 2]
- The number of patients in the group with a decrease in ALT by 30% or more [2, 6]: 17
- The number of patients in the group with a decrease in ASAT by 30% or more [2, 6]: 19
- The number of patients in the group with a decrease in GGTP by 30% or more ([2]; lyophilisate for IV injection, total dose 300 mg/day, control 2 of 10): 25
- Survivability by the 10th day [3]: 40%

Compound: NC(CO)(CO)CO.O=C1NC(O)(O)C(=NO)C(=O)N1c1ccc(Br)cc1 [Derivative 4]
- -SH-group [4, 7]: 900 ± 50 μmol/100 ml
- ALP [4, 7]: 0.73 ± 0.09 μkat/l
- ALT [4, 7]: 0.54 ± 0.08 μkat/l
- ASAT [4, 7]: 0.72 ± 0.06 μkat/l
- Body weight [4, 7]: 180 ± 15 g
- Bromsulfalein, at the 10th minute after the introduction [4, 7]: 19.3 ± 1.1 mg %
- Ceruloplasmin [4, 7]: 520 ± 50 mg/L
- ChE [4, 7]: 2.1 ± 0.2 µmol/g/min
- Cholesterol [4, 7]: 1.58 ± 0.21 mmol/L
- Glucose [4, 7]: 4.5 ± 0.4 mmol/L
- Hexenalum sleep [4, 7]: 27.0 ± 1.5 min
- LDH [4, 7]: 6.82 ± 0.34 mmol/h/L
- Prothrombin time [4, 7]: 43 ± 5 s
- Timole test [4, 7]: 2.86 ± 0.44 units of turbidity
- Total lipids [4, 7]: 3.2 ± 0.1 g/L
- Total protein [4, 7]: 52 ± 5 g/L
- -SH-group [4, 8]: 640 ± 50 μmol/100 ml
- ALP [4, 8]: 0.82 ± 0.12 μkat/l
- ALT [4, 8]: 0.69 ± 0.06 μkat/l
- ASAT [4, 8]: 0.76 ± 0.08 μkat/l
- Body weight [4, 8]: 185 ± 5 g
- Bromsulfalein, at the 10th minute after the introduction [4, 8]: 23.0 ± 1.6 mg %
- Ceruloplasmin [4, 8]: 580 ± 80 mg/L
- ChE [4, 8]: 2.2 ± 0.2 µmol/g/min
- Cholesterol [4, 8]: 1.70 ± 0.26 mmol/L
- Glucose [4, 8]: 4.6 ± 0.2 mmol/L
- Hexenalum sleep [4, 8]: 29.5 ± 1.5 min
- LDH [4, 8]: 8.24 ± 0.35 mmol/h/L
- Timole test [4, 8]: 3.22 ± 0.53 units of turbidity
- Total lipids [4, 8]: 2.9 ± 0.2 g/L
- Total protein [4, 8]: 48 ± 4 g/L
- Death of animals ([4]; enterally or parenterally injected, untreated control: 4 animals out of 10 died by the 10th day): not a single animal died
- Cytochrome B5 [4, 7]: 0.54 ± 0.07 mmol/mg protein ×10^−4
- Cytochrome P450 [4, 7]: 0.98 ± 0.06 mmol/mg protein ×10^−4
- Glycogen [4, 7]: 1600 ± 100 mg %
- Reduced glutathione [4, 7]: 165 ± 10 mg %
- Cytochrome B5 [4, 8]: 0.68 ± 0.04 mmol/mg protein ×10^−4
- Cytochrome P450 [4, 8]: 1.12 ± 0.03 mmol/mg protein ×10^−4
- Glycogen [4, 8]: 1500 ± 200 mg %
- Reduced glutathione [4, 8]: 170 ± 10 mg %
- Survivability by the 10th day [3]: 40%

Compound: NCCCO.O=C1NC(O)(O)C(=NO)C(=O)N1c1ccc(Br)cc1 [Derivative 5]
- Survivability of the animals by day 28 ([1]; Intravenous administration): 60%
- Body weight of the animals by the 20th day ([1]; Intravenous administration): 168 ± 7%
- Survivability of the animals by day 28 [1, 9]: 61%
- Body weight of the animals by the 20th day [1]: 161 ± 9%

Compound: C[S+](CC[C@H](N)C(=O)[O-])C[C@H]1O[C@@H](n2cnc3c(N)ncnc32)[C@H](O)[C@@H]1O (some centres unmarked) [Prototype, S-Adenosyl methionine-ademetionine, reference compound]
- Survivability of the animals by day 28 ([1]; Intravenous administration): 48%
- Body weight of the animals by the 20th day ([1]; Intravenous administration): 159 ± 4%
- Survivability of the animals by day 28 [1, 9]: 46%
- Body weight of the animals by the 20th day [1]: 160 ± 4%
- Survivability by the 10th day [3]: 30%

Compound: C[C@H](CCC(=O)O)[C@H]1CC[C@H]2[C@@H]3[C@@H](O)C[C@@H]4C[C@H](O)CC[C@]4(C)[C@H]3CC[C@]12C [Ursodeoxycholic acid, ursodeoxycholic acid, reference compound]
- Survivability by the 10th day [3]: 20%
